Results on 14 compounds are retold here after paper PMC9381947 (Antiviral Research, 2022).

Assay [1] deals with T1, SARS-CoV-2 NSP13 helicase (Severe acute respiratory syndrome coronavirus 2, UniProt P0DTD1). The experiment in a line: biochemical. To be noted: for inhibition at 20 µM: read-out: inhibitory activity against NSP13, confirmation screen; for NSP13 helicase inhibition relative to PUG: compared with PUG.
Assay [2] addresses T1, SARS-CoV-2 NSP13 helicase. The experiment in a line: Gel-based DNA unwinding assay. The note with it: PUG at concentrations over 1 μM. It counts as biochemical.
The target in assay [3] is SARS-CoV-2 NSP13 (Severe acute respiratory syndrome coronavirus 2, UniProt P0DTD1). The experiment in a line: Surface plasmon resonance. It counts as binding. To be noted: SPR, NSP13 coupled to CM5 chip. Background: In SPR one partner is held on a chip, and binding of the other changes the refractive index at the surface.
The target in assay [4] is SARS-CoV-2 NSP13 ATPase activity (Severe acute respiratory syndrome coronavirus 2, UniProt P0DTD1). The experiment in a line: Luciferase-coupled ATP assay. It counts as biochemical.
Assay [5] has as its system human adenovirus (HAdV) type 7 (HAdV-7). Description: Antiviral assay in A549 cells. To be noted: 48 h, qRT-PCR, listed as PUG. (Real-time PCR tracks product formation cycle by cycle.)
In assay [6] the target is NSP13/DNA complex (Severe acute respiratory syndrome coronavirus 2, UniProt P0DTD1). Description: Electrophoretic mobility shift assay. It counts as biochemical, SARS-CoV-2. The note with it: pre-incubation of NSP13 with compound, FAM-labeled 5ˊ flap DNA.
Setting [7] is: IC50 against NSP13 helicase activity, Table 1.
The mark [8] stands for this setting: IC50, DNA unwinding activity of NSP13, text and figures.
Setting [9] is: read-out: IC50 against NSP13 helicase activity, Table 1.
Where [10] appears, read: read-out: IC50 against NSP13 helicase activity.

Entries after “also recorded” stand apart in the source; their conditions may differ. Read-outs that look alike come from different tables or passages of the source.

Turning to `Oc1cc(O)c2c(c1)O[C@H](c1cc(O)c(O)c(O)c1)[C@H](O)[C@H]2c1c(O)cc(O)c2c1O[C@H](c1cc(O)c(O)c(O)c1)[C@H](O)[C@H]2c1c(O)cc(O)c2c1O[C@H](c1cc(O)c(O)c(O)c1)[C@H](O)C2` [Katacine], in assay [1] (setting [7]), the IC50 was determined as 5.98 µM.
Regarding “Bismuth subsalicylat [reference compound]”, in assay [1] (20 µM), the “inhibitory activity against NSP13, confirmation screen” value was “more than 70%”.
For the compound `O=C1O[C@@H]2[C@@H](OC(=O)c3cc(O)c(O)c(O)c3-c3c1cc(O)c(O)c3O)[C@H](O)O[C@@H]1COC(=O)c3cc(O)c(O)c(O)c3-c3c(O)c(O)c4oc(=O)c5c(c(O)c(O)c6oc(=O)c3c4c65)-c3c(cc(O)c(O)c3O)C(=O)O[C@@H]21` [Punicalagin, 2,3-hexahydroxydiphenoyl-gallagyl-D-glucose], the IC50 in assay [1] (setting [8]) is 0.427 µM; in assay [1] (setting [7]), 0.43 µM. The “helicase activity of NSP13 in gel-based DNA unwinding assay” value in assay [2] was “nearly abolished”. The Kd in assay [3] turned out to be 0.0216 µM. Moreover, the “Km of NSP13 ATPase” value in assay [4] (with increasing concentrations of PUG) is listed as “increased”. In addition, the “antiviral effect against HAdV-7” value in assay [5] is recorded as “did not show detectable antiviral effects”.
With `O=C([O-])c1cc(=O)[nH]c(=O)[nH]1.O=C([O-])c1cc(=O)[nH]c(=O)[nH]1.[Zn+2]` [Zinc Orotate], the IC50 in assay [1] (setting [9]) was determined as 4.12 µM.
Regarding `O=c1cc(-c2ccccc2)oc2cc(O)c(O)c(O)c12` [Baicalein, reference compound], the inhibition at 20 µM in assay [1] was over 70%.
In the case of Tannic acid, the IC50 in assay [1] (setting [9]) amounted to 1.25 µM.
In assay [1] (setting [8]), `O=C1OC[C@H]2OC(O)[C@H](O)[C@@H](O)[C@@H]2OC(=O)c2cc(O)c(O)c(O)c2-c2c(O)c(O)c3oc(=O)c4c(c(O)c(O)c5oc(=O)c2c3c54)-c2c1cc(O)c(O)c2O` (mixture of isomers) [PUL, punicalin] showed an IC50 of about 0.54 µM. The “NSP13 helicase inhibition relative to PUG” value in assay [1] is “comparable inhibitory activity”. In assay [2], the “helicase activity of NSP13 in gel-based DNA unwinding assay” value is recorded as “slightly weak inhibitory effect than PUG”. In assay [6], the “NSP13/DNA complex formation (EMSA)” value is “reduced the complex formation in a concentration-dependent manner”.
As to `O=c1c(O)c(-c2cc(O)c(O)c(O)c2)oc2cc(O)cc(O)c12` [Myricetin, reference compound], the inhibition at 20 µM in assay [1] is over 70%.
In the case of `CC(C)[C@H](NC(=O)CCCCCN1C(=O)C=CC1=O)C(=O)N[C@@H](CCCNC(N)=O)C(=O)Nc1ccc(COC(=O)Oc2ccc([N+](=O)[O-])cc2)cc1` [MC-Val-Cit-PABC-PNP], the IC50 in assay [1] (setting [10]) amounted to 2.45 µM.
Turning to `O=c1oc2c(O)c(O)cc3c(=O)oc4c(O)c(O)cc1c4c23` [EA, ellagic acid], in assay [1] (IC50, DNA unwinding activity of NSP13, text), the IC50 is about 2.8 µM. In addition, the “NSP13 helicase inhibition relative to PUG” value in assay [1] is reported as “about six times weaker”. In addition, the “inhibition of ATP hydrolysis by NSP13” value in assay [4] (10 μM ATP) is on record as “much weaker inhibition”. In assay [6], the “NSP13/DNA complex formation (EMSA)” value is given as “reduced the complex formation in a concentration-dependent manner; also recorded: much weaker inhibition”.
On to `O=c1cc(-c2ccc(O)cc2)oc2cc(O)c(O)c(O)c12` [Scutellarein, reference compound], for which, in assay [1], the inhibition at 20 µM is over 70%.
For the compound `O=C(N/N=C/c1cc(O)c(O)cc1O)c1cc2ccccc2cc1O` [Dyngo-4a, reference compound], the IC50 in assay [1] (setting [9]) is 0.63 µM.
Turning to `O=C(O)CSc1cc(NS(=O)(=O)c2ccc(Br)cc2)c2ccccc2c1O` [UMI-77, reference compound], the IC50 in assay [1] (setting [10]) worked out at 4.38 µM.
Consider `CC(C)c1cc2c(c(O)c1O)[C@@]13CCCC(C)(C)[C@@H]1[C@H](OC3=O)[C@H]2O` [Rosmanol], for which the IC50 in assay [1] (setting [7]) turned out to be 8.93 µM.

As a reminder, the IC50 is the concentration that gives 50% inhibition. As a reminder, the Kd is the equilibrium constant for the complex coming apart. A lower Kd goes with tighter binding.
